For 41 compounds, IC50 results are on record in patent US20110059910A1, “Novel aromatic fluoroglycoside derivatives, pharmaceuticals comprising said compounds and the use thereof” (SANOFI-AVENTIS, priority 2008, published 2011).

The experiment has as its target T1, human sodium-dependent glucose transporter 1 (SGLT1, SLC5A1) (Homo sapiens, UniProt P13866).
T1 construct: Bases 11 to 2005 correspond to the complete coding region of human SGLT1; expressed in transfected cells
T1 sequence (P13866 1-664): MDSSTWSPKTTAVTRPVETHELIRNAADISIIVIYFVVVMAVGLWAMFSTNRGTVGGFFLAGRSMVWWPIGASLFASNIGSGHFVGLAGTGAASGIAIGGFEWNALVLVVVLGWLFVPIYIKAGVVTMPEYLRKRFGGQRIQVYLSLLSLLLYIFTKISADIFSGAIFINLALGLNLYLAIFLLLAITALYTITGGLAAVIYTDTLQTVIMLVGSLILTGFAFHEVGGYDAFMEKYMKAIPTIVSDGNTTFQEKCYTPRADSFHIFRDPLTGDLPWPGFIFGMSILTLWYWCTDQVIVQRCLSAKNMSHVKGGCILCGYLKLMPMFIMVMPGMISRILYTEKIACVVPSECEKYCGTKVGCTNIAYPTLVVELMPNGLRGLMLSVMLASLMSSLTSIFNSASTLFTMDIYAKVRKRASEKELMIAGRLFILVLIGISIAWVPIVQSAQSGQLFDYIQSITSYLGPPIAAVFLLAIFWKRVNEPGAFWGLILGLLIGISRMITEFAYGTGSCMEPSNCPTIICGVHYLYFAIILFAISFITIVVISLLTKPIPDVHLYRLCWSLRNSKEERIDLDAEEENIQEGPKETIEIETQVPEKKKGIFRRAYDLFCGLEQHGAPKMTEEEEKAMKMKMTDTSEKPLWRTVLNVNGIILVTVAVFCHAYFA
Description: Inhibition of the transport activity of human SGLT1 in vitro (α-MDG uptake in CHO-TRex-hSGLT1 cells). It counts as cell-based. As to conditions: 50 μM α-MDG, 30 min at room temperature. The source says:
Inhibition of the Transport Activity of the Human Sodium-Dependent Glucose Transporter 1 (SGLT1, SLC5A1) In Vitro:
1. Cloning of an Expression Vector for Human SGLT1
The cDNA for human SGLT1 was introduced into the pcDNA4/TO vector (Invitrogen) by means of standard methods of molecular biology as described in Sambrook et al. (Molecular Cloning, A Laboratory Manual, Second Edition). […] Bases 11 to 2005 correspond to the complete coding region of human SGLT1.
2. Production of a Recombinant Cell Line with Inducible Expression of Human SGLT1
The expression vector for human SGLT1 was introduced into CHO-TRex cells (Invitrogen) by means of FuGene6 lipofection (Roche). To select single cell clones, 600 μg/ml of Zeocin (Invitrogen) was added to the cell culture medium (nutrient mixture F-12 (Ham), Invitrogen) supplemented with 10% fetal calf serum (BD Biosciences), 10 μg/ml Blasticidin S(CN Biosciences), 100 units/ml penicillin, 100 units/ml streptomycin). The functionality of the single cell clones resulting from the selection was tested via their uptake activity for radiolabeled methyl-α-D-glucopyranoside. That cell clone with the highest uptake activity for methyl-α-D-glucopyranoside, referred to hereinafter as CHO-TRex-hSGLT1, was selected for the further experiments and cultured further in the presence of 600 μg/ml Zeocin.
3. Measurement of the Inhibiting Action of Test Substances on the Uptake of methyl-α-D-glucopyranoside (α-MDG)
CHO-TRex-hSGLT1 cells were seeded in cell culture medium in a concentration of 50 000 cells per well in Cytostar-T scintillating 96-well plates (Amersham Biosciences) and cultivated for 24 h. The expression of the recombinant human SGLT1 was induced by adding 1 μg/ml tetracycline for a further 24 h. For α-MDG uptake experiments, the cells were washed with PBS and then starved at 37° C. in starvation medium (PBS supplemented with 10% fetal calf serum) for 1 hour. After a further washing step with transport assay buffer (140 mM sodium chloride, 2 mM potassium chloride, 1 mM magnesium chloride, 1 mM calcium chloride, 10 mM HEPES/Tris, pH 7.5), the cells were incubated at room temperature either in the absence or presence of test substances of different concentration for 15 min. The test substances were diluted correspondingly in transport assay buffer proceeding from a 10 mM stock solution in dimethyl sulfoxide (40 μl/well). The assay was subsequently started by adding 10 μl of a mixture of radiolabeled methyl-α-D-[U-^14C]glucopyranoside (Amersham) and unlabeled methyl-α-D-glucopyranoside (Acros). The final concentration of methyl-α-D-glucopyranoside in the assay was 50 μM. After an incubation time of 30 min at room temperature, the reaction was stopped by adding 50 μl/well of 10 mM methyl-α-D-glucopyranoside in transport assay buffer (4° C.), and the radioactivity taken up into the cells was determined in a MicroBeta Scintillation Microplate Reader (Wallac).
The half-maximum inhibiting action of the test substances (IC50 value) was determined as follows: • 4. Determination of the value for 0% inhibition. This is the measurement in the absence of substance, measured in sodium-containing transport assay buffer. • 5. Determination of the value for 100% inhibition. This is the measurement in the absence of substance, measured in sodium-free transport assay buffer (140 mM choline chloride, 2 mM potassium chloride, 1 mM magnesium chloride, 1 mM calcium chloride, 10 mM HEPES/Tris, pH7.5). • 6. Calculation of the percentage inhibition values of those measurements which were carried out in the presence of different concentrations of test substance. From this, it was then possible to determine that concentration of the test substance which reduces the uptake of the methyl-α-D-glucopyranoside by 50% (IC50 value).

`CCc1ccc(Cc2cc(C3OC(CO)C(F)(F)C(O)C3O)ccc2Cl)cc1` (centres unmarked) [Example 1]: the concentration for half-maximal inhibition (IC50) – broadly, the concentration that inhibits the measured activity by half – was 8 µM.
To `CCOc1ccc(Cc2cc(C3OC(CO)C(F)(F)C(O)C3O)ccc2Cl)cc1` (centres unmarked) [Example 2] belongs 8 µM; to `CCc1ccc(Cc2cc(C3OC(CO)C(F)C(O)C3O)ccc2Cl)cc1` (centres unmarked) [Example 3], 0.97 µM; to `COc1ccc(Cc2cccc(C3OC(CO)C(F)C(O)C3O)c2)cc1` (centres unmarked) [Example 5], 0.174 µM.
Regarding `CCc1ccc(Cc2cc(C3OC(CO)C(F)C(O)C3O)ccc2Cl)s1` (centres unmarked) [Example 6], the IC50 turned out to be 0.475 µM.
To `OCC1OC(c2ccc(Cl)c(Cc3cc4ccccc4s3)c2)C(O)C(O)C1F` (centres unmarked) [Example 7] belongs 1.3 µM; to `CCOC(=O)OCC1OC(c2ccc(F)c(Cc3ccc(OC)cc3)c2)C(O)C(O)C1F` (centres unmarked) [Example 8], 6.6 µM.
The compound `COc1ccc(Cc2cc(C3OC(CO)C(F)C(O)C3O)ccc2F)cc1` (centres unmarked) [Example 9] gave an IC50 of 3.6 µM.
To `CCOC(=O)OCC1OC(c2ccc(F)c(Cc3ccc(OC)cc3)c2)C(O)C(O)C1(F)F` (centres unmarked) [Example 10] belongs 13 µM.
To `COc1ccc(Cc2cc(C3OC(CO)C(F)(F)C(O)C3O)ccc2F)cc1` (centres unmarked) [Example 11] belongs 16 µM.
For the compound `CCOC(=O)OCC1OC(c2ccc(OC)c(Cc3ccc(OC)cc3)c2)C(O)C(O)C1F` (centres unmarked) [Example 12], the IC50 is 1.5 µM.
The same measure for `COc1ccc(Cc2cc(C3OC(CO)C(F)C(O)C3O)ccc2OC)cc1` (centres unmarked) [Example 13]: 0.152 µM; for `COc1ccc(Cc2cc(C3OC(CO)C(F)(F)C(O)C3O)ccc2OC)cc1` (centres unmarked) [Example 15]: 0.611 µM; for `CCOC(=O)OCC1OC(c2ccc(Cl)c(Cc3ccc(OCC)cc3)c2)C(O)C(O)C1F` (centres unmarked) [Example 16]: 25 µM.
`CCOc1ccc(Cc2cc(C3OC(CO)C(F)C(O)C3O)ccc2Cl)cc1` (centres unmarked) [Example 17] gave a concentration for half-maximal inhibition (IC50) of 0.757 µM.
On to `CCOC(=O)OCC1OC(c2ccc(Cl)c(Cc3ccc(OCC)cc3)c2)C(O)C(O)C1(F)F` (centres unmarked) [Example 18], for which 42 µM corresponded to half-maximal inhibition (IC50).
`CCOC(=O)OCC1OC(c2ccc(Cl)c(Cc3ccc(OC)cc3)c2)C(O)C(O)C1(F)F` (centres unmarked) [Example 21]: the 50% inhibitory concentration (IC50) was 50 µM.
Consider `COc1ccc(Cc2cc(C3OC(CO)C(F)(F)C(O)C3O)ccc2Cl)cc1` (centres unmarked) [Example 22], for which inhibition was half-maximal at 1.4 µM (IC50).
The same measure for `CCOC(=O)OCC1OC(c2ccc(Cl)c(Cc3ccc(OC(F)(F)F)cc3)c2)C(O)C(O)C1F` (centres unmarked) [Example 24]: 23 µM; for `OCC1OC(c2ccc(Cl)c(Cc3ccc(OC(F)(F)F)cc3)c2)C(O)C(O)C1F` (centres unmarked) [Example 25]: 3.5 µM.
To `CCOC(=O)OCC1OC(c2ccc(Cl)c(Cc3ccc(OC(F)(F)F)cc3)c2)C(O)C(O)C1(F)F` (centres unmarked) [Example 26] belongs more than 10 µM.
The compound `OCC1OC(c2ccc(Cl)c(Cc3ccc(OC(F)(F)F)cc3)c2)C(O)C(O)C1(F)F` (centres unmarked) [Example 27] registered an IC50 of 16 µM.
For the compound `OC[C@H]1O[C@@H](c2ccc(Cl)c(Cc3ccc(O)cc3)c2)[C@H](O)[C@@H](O)C1(F)F` [Example 30], it took 1.2 µM to reach half-maximal inhibition (IC50).
`CC(C)Oc1ccc(Cc2cc([C@@H]3O[C@H](CO)C(F)(F)[C@H](O)[C@H]3O)ccc2Cl)cc1` [Example 31] came in with an IC50 of 12 µM.
As to `Cc1ccc(C2OC(CO)C(F)(F)C(O)C2O)cc1Cc1ccc(O)cc1` (centres unmarked) [Example 33], the IC50 came out at 2.6 µM.
`COc1ccc(Cc2cc(C3OC(CO)C(F)(F)C(O)C3O)ccc2C)cc1` (centres unmarked) [Example 34] displayed an IC50 of 1.5 µM.
`CCOC(=O)OCC1OC(c2ccc(Cl)c(Cc3ccc(OC)cn3)c2)C(O)C(O)C1F` (centres unmarked) [Example 35] came in with an IC50 of 4.3 µM.
For the compound `COc1ccc(Cc2cc(C3OC(CO)C(F)C(O)C3O)ccc2Cl)nc1` (centres unmarked) [Example 36], the half-maximal inhibitory concentration (IC50) came to 2.7 µM.
`CCOC(=O)OCC1OC(c2ccc(Cl)c(Cc3ccc(OC)cn3)c2)C(O)C(O)C1(F)F` (centres unmarked) [Example 37] came in with a concentration for half-maximal inhibition (IC50) of 23.4 µM.
On to `COc1ccc(Cc2cc(C3OC(CO)C(F)(F)C(O)C3O)ccc2Cl)nc1` (centres unmarked) [Example 38], for which half-maximal inhibition (IC50) required 26.5 µM.
In turn, `CCOC(=O)OC[C@H]1O[C@@H](c2ccc(OC(F)(F)F)c(Cc3ccc(OC)cc3)c2)[C@H](O)[C@@H](O)[C@@H]1F` [Example 39] gave an IC50 of 22.8 µM.
For the compound `COc1ccc(Cc2cc([C@@H]3O[C@H](CO)[C@@H](F)[C@H](O)[C@H]3O)ccc2OC(F)(F)F)cc1` [Example 40], it took 0.232 µM to reach half-maximal inhibition (IC50).
`CCOC(=O)OC[C@H]1O[C@@H](c2ccc(OC(F)(F)F)c(Cc3ccc(OC)cc3)c2)[C@H](O)[C@@H](O)C1(F)F` [Example 41] yielded a concentration for half-maximal inhibition (IC50) of 11.8 µM.
To `COc1ccc(Cc2cc([C@@H]3O[C@H](CO)C(F)(F)[C@H](O)[C@H]3O)ccc2OC(F)(F)F)cc1` [Example 42] belongs 3.3 µM.
To `OC[C@H]1O[C@@H](c2ccc(Cl)c(Cc3ccc(Cl)cc3)c2)[C@H](O)[C@@H](O)[C@@H]1F` [Example 44] belongs 0.331 µM; to `OC[C@H]1O[C@@H](c2ccc(Cl)c(Cc3ccc(Cl)cc3)c2)[C@H](O)[C@@H](O)C1(F)F` [Example 46], 2.6 µM.
`COc1ccc(Cc2cc([C@@H]3O[C@H](CO)[C@@H](F)[C@H](O)[C@H]3O)ccc2C(F)(F)F)cc1` [Example 48]: the IC50 worked out at 0.24 µM.
For the compound `CCOC(=O)OC[C@H]1O[C@@H](c2ccc(C(F)(F)F)c(Cc3ccc(OC)cc3)c2)[C@H](O)[C@@H](O)C1(F)F` [Example 49], the 50% inhibitory concentration (IC50) was more than 100 µM.
To `COc1ccc(Cc2cc([C@@H]3O[C@H](CO)C(F)(F)[C@H](O)[C@H]3O)ccc2C(F)(F)F)cc1` [Example 50] belongs 7.3 µM; to `COc1ccc(Cc2cc(C3OC(CO)C(F)C(O)C3O)ccc2Br)cc1` (centres unmarked) [Example 56], 0.18 µM.
To `CCc1ccc(Cc2cc(C3OC(CO)C(F)C(O)C3O)ccc2C)cc1` (centres unmarked) [Example 61] belongs 0.461 µM.
